This note sets out measurements from patent publication US20080118553A1, “Tannate salt form of polypeptide mixtures, their preparation and use” (priority 2006, published 2008).

The test relates to splenocytes (glatiramer specific T cells). The test is described as follows: Ex-vivo testing in CJSL mice: cytokine secretion by splenocytes activated in vitro with GA RS after daily feeding. More on the design: key: BQL: Below Quantifiable Limit; BDL: Below Detectable Limit; AQL: Above Quantifiable Limit. As to conditions: 50 μg/ml GA RS in-vitro. As to the method:
Studies were conducted to test the potential properties of the mixture of polypeptides of the invention. In particular, the studies were to determine whether the mixture of polypeptides of the invention would elicit an immune response with similar cytokine patterns as those elicited by glatiramer acetate when tested in an ex-vivo model in mice.
Beginning on Day 0, groups of 4 CJSL Mice were fed daily with GA reference standard (GA RS, 12.5 μg/kg). Glatiramer Tannate (amount equivalent to 18.75 μg/kg), tannic acid (negative control, in an amount equivalent to the tannate administered to the 18.75 μg/kg glatiramer tannate group) or phosphate buffered saline (PBS—placebo control). During period of study, subsets of mice in each treatment group were sacrificed on days 4, 7 and 11. Spleens were excised and primary cell cultures were prepared. The effect of the treatment was tested by in-vitro activation of splenocytes with GA RS 50 μg/ml. The response of the cells to the challenge is a measure of previous exposure to Glatiramer and the generation of glatiramer specific T cells. T-cell response was monitored by detection of cytokines secreted from activated cells by ELISA analysis. The levels of IL-2, IL-3 and IL-5 cytokines were examined.

Setting [1] is: glatiramer dose NA (tannic acid equivalent to the tannate of the 18.75 group) daily oral, day of treatment 4.
Setting [2] is: glatiramer dose NA (tannic acid equivalent to the tannate of the 18.75 group) daily oral, day of treatment 7.
The mark [3] stands for this setting: glatiramer dose NA (tannic acid equivalent to the tannate of the 18.75 group) daily oral, day of treatment 11.
Where [4] appears, read: glatiramer treatment dose 12.5 Mg/kg daily oral, day of treatment 4.
The mark [5] stands for this setting: glatiramer treatment dose 12.5 Mg/kg daily oral, day of treatment 7.
The mark [6] stands for this setting: glatiramer treatment dose 12.5 Mg/kg daily oral, day of treatment 11.

With `O=C(OC[C@H]1O[C@@H](OC(=O)c2cc(O)c(O)c(OC(=O)c3cc(O)c(O)c(O)c3)c2)[C@H](OC(=O)c2cc(O)c(O)c(OC(=O)c3cc(O)c(O)c(O)c3)c2)[C@@H](OC(=O)c2cc(O)c(O)c(OC(=O)c3cc(O)c(O)c(O)c3)c2)[C@@H]1OC(=O)c1cc(O)c(O)c(OC(=O)c2cc(O)c(O)c(O)c2)c1)c1cc(O)c(O)c(OC(=O)c2cc(O)c(O)c(O)c2)c1` [Tannic Acid, tannic acid], under setting [1], the IL-2 secretion result is listed as “BQL”, the IL-3 secretion result is “BQL” and the IL-5 secretion entry was “BDL”. Besides, under setting [2], the IL-2 secretion was 26.7 pg/mL, the IL-3 secretion was determined as 76.9 pg/mL and the IL-5 secretion result is “BQL”. Under setting [3], the IL-2 secretion was 16.6 pg/mL, the IL-3 secretion came to 63.2 pg/mL and the IL-5 secretion entry was “BQL”.

Consider “L-glutamic acid polymer with L-alanine, L-lysine and L-tyrosine, acetate (salt) [GA]”, for which, under setting [4], the IL-2 secretion entry is on record as “BQL”, the IL-3 secretion result was “BQL” and the IL-5 secretion result is given as “BDL”. In addition, under setting [5], the IL-2 secretion was determined as 121.5 pg/mL, the IL-3 secretion came to 456.5 pg/mL and the IL-5 secretion entry is given as “BQL”. Under setting [6], the IL-2 secretion came out at 119.0 pg/mL, the IL-3 secretion was determined as 701.6 pg/mL and the IL-5 secretion result is given as “BQL”.
